Source: paper PMC10518255, “A first-in-class pan-lysyl oxidase inhibitor impairs stromal remodeling and enhances gemcitabine response and survival in pancreatic cancer” (Nature Cancer, 2023)
Several values for one entry are separate records, joined by “and”; a condition that tells them apart may be missing. Equal values may be shown once.

Columns and labels:
[1] = test system: KPC PDAC tumors; assay: SHG multiphoton imaging of fibrillar collagen in end-point KPC tumors; type: in vivo, mouse; conditions: for SHG peak signal intensity: 5 animals per group, 5 FOV per animal, single FOV values
Experimental: Fig. 4 PXS-5505 administered in a KPC in vivo survival study. a, Schematic of the KPC in vivo survival study. Presence of a primary tumor in KPC mice was confirmed by two independent researchers (positive diagnosis) before commencement of daily treatment (Tx) on one of four treatment arms as follows: vehicle, 0.9% saline; Gem, twice-weekly gemcitabine (100 mg kg^−1 i.p.); PXS-5505, daily PXS-5505 at 20 mg kg^−1 i.p.; and PXS-5505 + Gem, daily PXS-5505 at 20 mg kg^−1 i.p. + twice-weekly gemcitabine (100 mg kg^−1 i.p.). b, Table of median survival (since diagnosis/commencement of treatment) across the four treatment groups (n = 30 biologically independent animals (vehicle), n = 31 biologically independent animals (Gem), n = 36 biologically independent animals (PXS-5505), n = 46 biologically independent animals (PXS-5505 + Gem)). c, Kaplan–Meier curves for overall survival across treatment arms (n = 30 biologically independent animals (vehicle), n = 31 biologically independent animals (Gem), n = 36 biologically independent animals (PXS-5505), n = 46 biologically independent animals (PXS-5505 + Gem)). P values determined by log-rank (Mantel–Cox) test. d, Representative maximum intensity projections of SHG multiphoton imaging for tumors from each treatment group (n = 1 FOV taken from one biologically independent animal per group) at end point (scale bars, 100 μm) and quantification of SHG peak signal intensity (n = 5 biologically independent animals per group and five FOV per animal). Data are mean ± s.d. […] Quantification of metastases (n = 18 biologically independent animals (vehicle), n = 18 biologically independent animals (Gem), n = 17 biologically independent animals (PXS-5505), n = 15 biologically independent animals (PXS-5505 + Gem)). Data are mean ± s.d.
SHG imaging of fibrillar collagens was employed to analyze collagen density and organization as performed previously[28],[34],[58]. […] Intensity was recorded with a RLD HyD detector (440/20 nm). […] SHG signal intensities were measured using MATLAB (MathWorks) as described previously[28],[34],[58].

[2] = test system: TKCC10 human PDX tumors; assay: TKCC10 human model, bulk modulus by unconfined compression (Extended Data Fig. 5e); type: in vivo, mouse; set-up: key to Bulk modulus (stiffness) by unconfined compression testing: bulk elastic modulus in kPa; conditions: for Bulk modulus (stiffness) by unconfined compression testing: Extended Data 5E, endpoint human PDX tumours, individual animals
Experimental: Unconfined compression of in vivo tissue samples was carried out on 2–3-mm cross-sectional slices using a TA Instruments Dynamic Hybrid Rheometer (DHR-3, TA Instruments). Tissue samples were placed between upper and lower parallel plate geometries. A constant linear compressive rate of 5 µm s^−1 was applied to the samples and axial force (N) and gap (mm) were collected every 0.01 s. Data were processed and a stress–strain curve for each replicate was obtained. Bulk elastic modulus (kPa) was obtained as the gradient of the linear region of the stress–strain curve corrected for cross-sectional area of sample. Data points represent individual biological replicates.
Subcutaneous PDX studies were performed by implanting early passage PDX pieces (~4 mm^3) or TKCC10 CCs (1.5 × 10^6 cells per mouse in 100 μl PBS/Matrigel 1:1) into female (PDX) or male (TKCC10) 8-week-old immunocompromised nude Balb/c-Fox1nuAusb mice subcutaneously on the left flank. For the duration of the study, mice were kept in conventional caging with environmental enrichment, access to standard chow, water ad libitum and 12-h light–dark cycle at ambient temperature and humidity. […] Tumor size was monitored every second day by calipers. Tumor volume was calculated using the formula (length × width^2)/2. […]
Extended Data Fig. 5 PXS-5505 in combination with gemcitabine in vivo. a. […] Signal is defined as the enzyme activity in the aorta, while noise is measured in the presence of a high concentration (300 µM) BAPN to abolish any lysyl oxidase family activity. […] FITC-dextran (molecular weight: 10 kDa) signal quantification from KPC tumor end point from each treatment group (vehicle n = 3 biologically independent animals, PXS-5505 n = 5 biologically independent animals, Gem n = 5 biologically independent animals, PXS-5505 + Gem n = 5 biologically independent animals). […] P-values determined by Welchs t-test. […] Quantification of red birefringent (mature) collagen fibers from human PDXs at end point after 3 cycles of treatment, treated as indicated. […] P values determined by Welchs t-test. g. […]

| Compound | fibrillar collagen / stromal content by SHG [1] | SHG peak signal intensity [1] | Bulk modulus (stiffness) by unconfined compression testing [2] | tumor bulk stiffness ([2]; TKCC10 model, three rounds of therapy) |
| --- | --- | --- | --- | --- |
| Nc1ccn([C@@H]2O[C@H](CO)[C@@H](O)C2(F)F)c(=O)n1 [Gem, gemcitabine] | significantly increased stromal content | 116.837 and 121.251 and 74.7808 and 58.0704 and 58.6614 and 88.5172 and 66.9647 and 76.4458 and 85.1379 and 61.658 and 86.6036 and 56.3648 and 49.2982 and 91.4138 and 56.7061 and 67.2683 and 73.645 and 75.3134 and 83.1972 and 82.1163 and 64.6996 and 72.2796 and 40.261 and 45.2578 and 54.2825 | 110.51 and 99.1 and 103.39 and 48.75 and 58.11 | significant increase in tumor bulk stiffness |
| Cl.Cl.NC/C=C(\F)CS(=O)(=O)c1cccc2cccnc12.O [PXS-5505, (Z)-3-fluoro-4-(quinolin-8-ylsulfonyl)but-2-en-1-amine dihydrochloride monohydrate] |  | 45.7826 and 42.6725 and 46.4759 and 51.7331 and 29.3681 and 51.0162 and 24.7531 and 11.1698 and 19.0235 and 45.4063 and 19.8592 and 24.5743 and 17.8792 and 16.4101 and 14.0868 and 27.3224 and 22.509 and 34.8879 and 24.4703 and 26.4774 and 34.2776 and 17.1388 and 29.5006 and 45.3832 and 44.8772 | 8.16 and 16.78 and 14.19 and 5.55 and 12.49 |  |
